According to patent US20260345601A1, “FORMS OF CARBAMATE DERIVATIVES AND RELATED USES” (NodThera Limited, priority 2022, published 2026):
In brackets after ≈: the same amount, converted by molar mass.

How the values were obtained:
Format in all cases: physicochemical
[1] = TGA (thermo-gravimetric analysis)/thermal analysis
Experimental: Thermo-Gravimetric Analysis (TGA)
TA Instruments Q500: TGA data were collected on a TA Instruments Q500 TGA, equipped with a 16 position auto-sampler. Typically, 5-10 mg of each sample was loaded onto a pre-tared aluminium DSC pan and heated at 10 °C/min from ambient temperature to 350 °C. A nitrogen purge at 60 ml/min was maintained over the sample. The instrument control software was Advantage for Q Series and Thermal Advantage and the data were analysed using Universal Analysis or TRIOS.

[2] = Gravimetric vapour sorption (GVS)
Experimental: Gravimetric Vapour Sorption (GVS)
Sorption isotherms were obtained using a SMS DVS Intrinsic moisture sorption analyser, controlled by DVS Intrinsic Control software. The sample temperature was maintained at 25 °C by the instrument controls. The humidity was controlled by mixing streams of dry and wet nitrogen, with a total flow rate of 200 ml/min. The relative humidity was measured by a calibrated Rotronic probe (dynamic range of 1.0-100% RH), located near the sample. The weight change, (mass relaxation) of the sample as a function of % RH was constantly monitored by a microbalance (accuracy±0.005 mg).
Typically, 5-30 mg of sample was placed in a tared mesh stainless steel basket under ambient conditions. The sample was loaded and unloaded at 40% RH and 25 °C (typical room conditions). A moisture sorption isotherm was performed as outlined below (2 scans per complete cycle). The standard isotherm was performed at 25 °C at 10% RH intervals over a 0-90% RH range. Typically, a double cycle (4 scans) was carried out. Data analysis was carried out within Microsoft Excel using the DVS Analysis Suite.
The sample was recovered after completion of the isotherm and re-analysed by XRPD.

[3] = Solubility in aqueous and biorelevant media (Table A)
From the text: Form 1 was characterized using a wide range of techniques to investigate the solid form and chemical properties (FIGS. 1-6B).

[4] = Storage at 25 °C/97% RH and 40 °C/75% RH
Experimental: Chemical Purity Determination by High-Performance Liquid Chromatography (HPLC)
Purity analysis was performed on an Agilent HP1100/Infinity II 1260 series system equipped with a diode array detector and using OpenLAB software. The full method details are provided below:
Unless stated within the appropriate data tables, all HPLC purity data reported has been run using the HPLC Method No. 2.

[5] = Solubility in single solvents, Form 2 as starting material (Table D); settings: 20-25 °C; for Solubility: starting material Form 2, XRPD Form 1
Experimental: Solubility of Form 1 was measured in several single solvents using Form 2 as starting material, respectively. […] Thus, MeOH, Acetone, MEK, EtOAc and IPAc were selected for further chemical stability evaluation before starting solubility test with anti-solvents.

[6] = Solubility of Form 1 in IPAc/Heptane system (Table E)
Experimental: Solubility of Form 1 was further measured in IPAc/Heptane system with different ratio at 0-50 °C.

[7] = Drying stability test (Table I); settings: 50 °C under vacuum

In the case of `CC(C)OC(=O)[C@@H](Cc1ncccn1)OC(=O)Nc1c2c(cc3c1CCC3)CCC2` [Form 1, propan-2-yl(2R)-2-{[(1,2,3,5,6,7-hexahydro-s-indacen-4-yl)carbamoyl]oxy}-3-(pyrimidin-2-yl) propanoate], the “Thermal stability by thermal analysis” value [1] was “thermally stable”, the “TGA weight loss before degradation” value ([1]; heated at 10 °C/min, nitrogen purge) was “no weight loss before degradation” and the GVS hygroscopicity ([2]; 25 °C) was “Non-hygroscopic”. The GVS hysteresis ([2]; 25 °C) was “no hysteresis”, the GVS water uptake ([2]; 25 °C, 0-90% RH) was <0.1% water uptake between 0-90% RH and the GVS water uptake ([2]; 25 °C, 40-90% RH) was under 0.1%. The “XRPD post GVS” value ([2]; form after GVS experiment) was “remained as Form 1”, the Solubility ([3]; fassif) was 0.026 mg/mL (≈ 0.0635 mM) and the Solubility ([3]; fessif) was 0.014 mg/mL (≈ 0.0342 mM). The Solubility ([3]; pH = 1.2) was under 0.01 mg/mL, the Solubility ([3]; pH = 5) was under 0.01 mg/mL and the Solubility ([3]; pH = 6.5) was under 0.01 mg/mL. For the same molecule, the Solubility ([3]; pH = 7.4) was under 0.01 mg/mL, the Solubility ([3]; pH = 8.5) was under 0.01 mg/mL and the Solubility ([3]; sgf) was 0.0047 mg/mL (≈ 0.0115 mM). The “Storage: solid form” value ([4]; 25 °C/97% RH) was “Form 1”, the “Storage: solid form” value ([4]; 40 °C/75% RH) was “Form 1” and the Solubility ([5]; Acetone) was 167 mg/mL (≈ 408 mM). The Solubility ([5]; EtOAc) was 98 mg/mL (≈ 239 mM), the Solubility in words ([5]; EtOH and IPA) was “moderate solubility” and the Solubility ([5]; EtOH) was 45 mg/mL (≈ 110 mM). It also gave a Solubility ([5]; IPA) of 24 mg/mL (≈ 58.6 mM), a Solubility ([5]; IPAc) of 48 mg/mL (≈ 117 mM) and a Solubility ([5]; MEK) of 175 mg/mL (≈ 427 mM). The Solubility ([5]; MeOH) was 77 mg/mL (≈ 188 mM), the Solubility in words ([5]; MeOH, Acetone, MEK, EtOAc and IPAc) was “good solubility” and the Solubility in words ([5]; n-heptane and water) was “poor solubility”. It also gave a Solubility ([5]; n-heptane) of 3 mg/mL (≈ 7.33 mM), a Solubility ([6]; IPAc/Heptane 1/0 (v/v), 30 °C) of 59.5 mg/mL (≈ 145 mM) and a Solubility ([6]; IPAc/Heptane 1/0 (v/v), 40 °C) of 80.2 mg/mL (≈ 196 mM). It also gave a Solubility ([6]; IPAc/Heptane 1/0 (v/v), 50 °C) of 170.6 mg/mL (≈ 417 mM), a Solubility ([6]; IPAc/Heptane 1/1 (v/v), 0-5 °C) of 6.4 mg/mL (≈ 15.6 mM) and a Solubility ([6]; IPAc/Heptane 1/1 (v/v), 30 °C) of 12.1 mg/mL (≈ 29.5 mM). The Solubility ([6]; IPAc/Heptane 1/1 (v/v), 50 °C) was 34.4 mg/mL (≈ 84 mM), the Solubility ([6]; IPAc/Heptane 1/2 (v/v), 0-5 °C) was 3.4 mg/mL (≈ 8.3 mM) and the Solubility ([6]; IPAc/Heptane 1/2 (v/v), 30 °C) was 4.8 mg/mL (≈ 11.7 mM). The Solubility ([6]; IPAc/Heptane 1/2 (v/v), 50 °C) was 18.0 mg/mL (≈ 44 mM), the Solubility ([6]; IPAc/Heptane 1/3 (v/v), 0-5 °C) was 1.7 mg/mL (≈ 4.15 mM) and the Solubility ([6]; IPAc/Heptane 1/3 (v/v), 30 °C) was 2.9 mg/mL (≈ 7.08 mM). For the same molecule, the Solubility ([6]; IPAc/Heptane 1/3 (v/v), 50 °C) was 8.0 mg/mL (≈ 19.5 mM), the Solubility ([6]; IPAc/Heptane 2/1 (v/v), 30 °C) was 27.7 mg/mL (≈ 67.6 mM) and the Solubility ([6]; IPAc/Heptane 2/1 (v/v), 50 °C) was 53.4 mg/mL (≈ 130 mM). The Solubility ([6]; IPAc/Heptane 3/1 (v/v), 50 °C) was 65.2 mg/mL (≈ 159 mM), the Solubility ([6]; IPAc/Heptane 4/1 (v/v), 50 °C) was 75.2 mg/mL (≈ 184 mM) and the Solubility ([6]; IPAc/Heptane 9/1 (v/v), 50 °C) was 120.0 mg/mL (≈ 293 mM). The “XRPD form in solubility test” value ([6]; IPAc/Heptane, 0-50 °C, starting material Form 1) was “Form 1”, the “Drying stability: XRPD” value ([7]; 0 h) was “Form 1” and the “Drying stability: purity” value ([7]; 0 h) was 99.0%. The “Drying stability: XRPD” value ([7]; 22 h) was “Form 1”, the “Drying stability: purity” value ([7]; 22 h) was 99.1% and the “Drying stability: XRPD” value ([7]; 70 h) was “Form 1”. For the same molecule, the “Drying stability: purity” value ([7]; 70 h) was 99.1%, the “Drying stability in words” value ([7]; total 70 h) was “no degradation and form change” and the “Stability at elevated temperatures” value ([7]; total 70 h) was “chemically and physically stable at elevated temperatures”.
